Target: 17β-HSD1 (Homo sapiens (Human), UniProt P14061)
Test: 17β-HSD1 test assay (recombinant protein from Sf9 insect cells, 3H-estrone/NADPH)
Assay type: biochemical
Conditions: for inhibition at 1 µM: read-out: HSD 1 μM (% inhibition of HSD1), inhibitor 1 μM; for inhibition at 0.1 µM: read-out: HSD1 100 nM (% inhibition), inhibitor 100 nM
Description: Recombinant protein obtained from Sf9 insect cells (0.1 μg/ml) is incubated with 20 mM KH2PO4, pH 7.4, 30 nM ^3H-estrone and 1 mM NADPH for 30 min at RT in the presence of the potential inhibitor in a concentration of 1 μM or 100 nM. The stock solutions of the compounds are prepared in DMSO (dimethylsulfoxide) so that the final concentration of DMSO in the sample is 1%. After the prescribed incubation time, the reaction is quenched by adding trichloroacetic acid (10% final concentration). The samples are centrifuged in microtitration plates at 400 rpm for 10 min, and the supernatants are charged on a reversed-phase HPLC equipped with a Waters Symmetrie C18 column and Waters Sentry Guard column. The isocratic HPLC run is performed at RT with a flow rate of 1 ml/min and acetonitrile/water 48:52 as the eluent. The radioactivity was measured by means of a Packard Flow Scintillation Analyzer. […]

Chain of 17β-HSD1 (P14061 whole entry): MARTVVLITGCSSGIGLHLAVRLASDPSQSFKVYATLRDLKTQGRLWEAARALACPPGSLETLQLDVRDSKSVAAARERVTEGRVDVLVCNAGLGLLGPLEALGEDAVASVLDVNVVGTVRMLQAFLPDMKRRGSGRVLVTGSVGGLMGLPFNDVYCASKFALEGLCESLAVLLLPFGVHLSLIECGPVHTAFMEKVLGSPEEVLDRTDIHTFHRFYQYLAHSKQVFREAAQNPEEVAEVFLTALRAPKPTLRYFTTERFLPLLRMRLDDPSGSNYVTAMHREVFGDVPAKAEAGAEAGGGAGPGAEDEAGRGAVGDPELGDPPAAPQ

Structure (SMILES) | inhibition at 1 µM | inhibition at 0.1 µM
COc1ccc(-c2ccc3c(O)cccc3c2)cc1 [Compound 25, 6-(4-Methoxyphenyl)-1-naphthol] | < 10% | < 10%
Cc1cc(O)cc(-c2ccc3cc(O)ccc3c2)c1 [Compound 26, 6-(3-Hydroxy-5-methylphenyl)-2-naphthol] | 41.7% | 14.3%
Oc1ccc(-c2cc(O)cc(-c3ccc4cc(O)ccc4c3)c2)cc1 [Compound 27, 5-(6-Hydroxy-2-naphthyl)-1,1′-biphenyl-3,4′-diol] | < 10% | < 10%
Oc1cc(-c2ccc3cc(O)ccc3c2)cc(-c2ccc3cc(O)ccc3c2)c1 [Compound 28, 6-[3-Hydroxy-5-(6-hydroxy-2-naphthyl)phenyl]-2-naphthol] | < 10% | < 10%
CNC(=O)c1cc(O)cc(-c2ccc3cc(O)ccc3c2)c1 [Compound 29, 3-Hydroxy-5-(6-hydroxynaphthalen-2-yl)-N-methylbenzamide] | < 10% | < 10%
O=C(Nc1ccccc1)c1cc(O)cc(-c2ccc3cc(O)ccc3c2)c1 [Compound 30, 3-Hydroxy-5-(6-hydroxynaphthalene-2-yl)-N-phenylbenzamide] | < 10% | < 10%
CNC(=O)/C=C/c1cc(O)cc(-c2ccc3cc(O)ccc3c2)c1 [Compound 31, (E)-3-[3-Hydroxy-5-(6-hydroxynaphthalene-2-yl)phenyl]-N-methylacrylamide] | < 10% | < 10%
O=C(/C=C/c1cc(O)cc(-c2ccc3cc(O)ccc3c2)c1)Nc1ccccc1 [Compound 32, (E)-3-[3-Hydroxy-5-(6-hydroxynaphthalene-2-yl)phenyl]-N-phenylacrylamide] | 19.6% | < 10%
CNC(=O)CCc1cc(O)cc(-c2ccc3cc(O)ccc3c2)c1 [Compound 33, 3-[3-Hydroxy-5-(6-hydroxynaphthalene-2-yl)phenyl]-N-methylpropionamide] | < 10% | < 10%
O=C(CCc1cc(O)cc(-c2ccc3cc(O)ccc3c2)c1)Nc1ccccc1 [Compound 34, 3-[3-Hydroxy-5-(6-hydroxynaphthalene-2-yl)phenyl]-N-phenylpropionamide] | 13.6% | < 10%
CC(=O)Nc1ccc(-c2ccc3cc(O)ccc3c2)cc1O [Compound 35, N-[2-Hydroxy-4-(6-hydroxy-2-naphthyl)phenyl]acetamide] | < 10% | < 10%
O=C(Nc1ccc(-c2ccc3cc(O)ccc3c2)cc1O)c1ccccc1 [Compound 36, N-[2-Hydroxy-4-(6-hydroxy-2-naphthyl)phenyl]benzamide] | < 10% | < 10%
CNC(=O)c1cc2cc(-c3cccc(O)c3)ccc2cc1O [Compound 37, 3-Hydroxy-7-(3-hydroxyphenyl)-N-methyl-2-naphthamide] | 18% | < 10%
O=C(Nc1ccccc1)c1cc2cc(-c3cccc(O)c3)ccc2cc1O [Compound 38, 3-Hydroxy-7-(3-hydroxyphenyl)-N-phenyl-2-naphthamide] | 62% | 17%
O=C(c1c(O)ccc2cc(-c3cccc(O)c3)ccc12)N1CCOCC1 [Compound 44, (2-Hydroxy-6-(3-hydroxyphenyl)naphthalene-1-yl)(morpholino)methanone] | 62.4% | 27.8%
O=C(c1c(O)ccc2cc(-c3cccc(O)c3)ccc12)N1CCNCC1 [Compound 45, (2-Hydroxy-6-(3-hydroxyphenyl)naphthalene-1-yl)(piperazin-1-yl)methanone] | 44.5% | < 10%
O=C(Nc1nccs1)c1c(O)ccc2cc(-c3cccc(O)c3)ccc12 [Compound 46, 2-Hydroxy-6-(3-hydroxyphenyl)-N-(thiazol-2-yl)-1-naphthamide] | 53% | < 10%

From patent US8546392B2, “17Beta-hydroxysteroid dehydrogenase type 1 inhibitors for the treatment of hormone-related diseases” (Universitaet des Saarlandes, priority 2008, dated 2013)
